Measurements as given in PMC6089664 (Clinical pharmacology and therapeutics, 2017).
Read-outs that look alike come from different tables or passages of the source.

What was measured:
[1] = cited from earlier work
serum IP-10 = assay: Correlation of AUC24,SS with serum CXCL10/IP-10 levels; assay type: in vivo, human; settings: 189 observations in 18 patients, linear mixed model, p-value for slope 0.0002
[2] = Population pharmacokinetic; assay type: in vivo, human; settings: for AUC24,SS/Dose: AUC24,SS/total daily dose
25-gene IFN score = assay: Correlation of AUC24,SS with whole blood 25-gene IFN score; assay type: in vivo, human; settings: subset (5) of CANDLE patients
[3] = popPK final model, 18 patients, oral
[4] = 18 patients, 54 patient-years of exposure

CCS(=O)(=O)N1CC(CC#N)(n2cc(-c3ncnc4[nH]ccc34)cn2)C1 [baricitinib, Baricitinib]
half-life ([1]; RA population): 12.5 h
half-life ([1]; healthy adult subjects): 10 h
effect of renal impairment on Cmax ([1]; moderate and severe renal impairment, ref data on file, Eli Lilly and Company): minimal effect
half-life ([1]; psoriasis patients): 12.8 h
slope of correlation of AUC24,SS with serum IP-10 levels (serum IP-10): −0.197
projected initial exposure (AUC24,SS) with proposed starting dose ([2]; 20–40kg, eGFR ≥120 mL/min/1.73 m^2, initial dose 6 mg/day BID): 1077 to 2688 nM·h
projected initial exposure (AUC24,SS) with proposed starting dose ([2]; <20kg, eGFR ≥120 mL/min/1.73 m^2, initial dose 6 mg/day TID): 1769 to 2112 nM·h
projected initial exposure (AUC24,SS) with proposed starting dose ([2]; >40kg, eGFR ≥120 mL/min/1.73 m^2, initial dose 8 mg/day BID): 1082 to 1958 nM·h
Covariate effect of GFR on Clearance, parameter for GFR-CL (%SEE) ([2]; CL/Ftypical=9.74×(eGFR/146.82)^0.444): 0.444 (24.8%)
Covariate effect of Weight on V/F, parameter for WTV-V (%SEE) ([2]; V/Ftypical = 67.1 × e^0.0192·(WTV−27.2)): 0.0192 (15.0%)
geometric mean AUC24,SS at clinically effective doses ([2]; all patients, final PK assessments): ~ 2388 nM*h
dose proportionality of PK ([2]; dosing range of 1–14 mg daily): dose linearity
AUC24,SS/Dose ([2]; eGFR ≥120 ml/min/1.73 m^2, 20–40kg (n=5), geometric mean (%CV)): 292 nM·h/mg
AUC24,SS/Dose ([2]; eGFR ≥120 ml/min/1.73 m^2, <20kg (n=2), geometric mean (%CV)): 322 nM·h/mg
AUC24,SS/Dose ([2]; eGFR ≥120 ml/min/1.73 m^2, >40kg (n=5), geometric mean (%CV)): 193 nM·h/mg
AUC ([2]; human, plasma, oral, 6 mg/day, AUC24,SS, eGFR <120 ml/min/1.73 m^2, <20kg (n=2), final PK visit, geometric mean (%CV)): 3.08 µM·h
CL/F ([2]; human, plasma, oral, 6.9 mg/day): 5.33 mL/min/kg
half-life ([2]; human, plasma, oral, 6.9 mg/day, t1/2, eGFR ≥120 ml/min/1.73 m^2, 20–40kg (n=5), final PK visit, geometric mean (%CV)): 300 min
CL/F ([2]; human, plasma, oral, 8 mg/day): 9.33 mL/min/kg
AUC ([2]; human, plasma, oral, 8 mg/day, AUC24,SS, eGFR ≥120 ml/min/1.73 m^2, <20kg (n=2), final PK visit, geometric mean (%CV)): 2.58 µM·h
Cmax ([2]; human, plasma, oral, 8 mg/day, eGFR ≥120 ml/min/1.73 m^2, <20kg (n=2), final PK visit, geometric mean (%CV)): 171 nM
half-life ([2]; human, plasma, oral, 8 mg/day, t1/2, eGFR ≥120 ml/min/1.73 m^2, <20kg (n=2), final PK visit, geometric mean (%CV)): 264 min
half-life ([2]; human, plasma, oral, 10 mg/day, t1/2, eGFR ≥120 ml/min/1.73 m^2, >40kg (n=5), final PK visit, geometric mean (%CV)): 420 min
AUC ([2]; human, plasma, oral, AUC24,SS, eGFR <120 ml/min/1.73 m^2, >40kg (n=3), final PK visit, geometric mean (%CV)): 2.53 µM·h
AUC ([2]; human, plasma, oral, AUC24,SS, eGFR ≥120 ml/min/1.73 m^2, 20–40kg (n=5), final PK visit, geometric mean (%CV)): 2.02 µM·h
AUC ([2]; human, plasma, oral, AUC24,SS, eGFR ≥120 ml/min/1.73 m^2, >40kg (n=5), final PK visit, geometric mean (%CV)): 1.94 µM·h
Cmax ([2]; human, plasma, oral, eGFR <120 ml/min/1.73 m^2, <20kg (n=2), final PK visit, geometric mean (%CV)): 229 nM
Cmax ([2]; human, plasma, oral, eGFR <120 ml/min/1.73 m^2, >40kg (n=3), final PK visit, geometric mean (%CV)): 180 nM
Cmax ([2]; human, plasma, oral, eGFR ≥120 ml/min/1.73 m^2, 20–40kg (n=5), final PK visit, geometric mean (%CV)): 150 nM
Cmax ([2]; human, plasma, oral, eGFR ≥120 ml/min/1.73 m^2, >40kg (n=5), final PK visit, geometric mean (%CV)): 136 nM
half-life ([2]; human, plasma, oral, estimated half-life, patient O3, >40 kg, eGFR 54–76 mL/min/1.73 m^2): 1020 to 1150 min
AUC ([2]; human, plasma, oral, geometric mean AUC24,SS at clinically effective doses, all patients, final PK assessments): 2.39 µM·h
half-life ([2]; human, plasma, oral, t1/2, eGFR <120 ml/min/1.73 m^2, <20kg (n=2), final PK visit, geometric mean (%CV)): 288 min
half-life ([2]; human, plasma, oral, t1/2, eGFR <120 ml/min/1.73 m^2, >40kg (n=3), final PK visit, geometric mean (%CV)): 468 min
Vd/F ([2]; human, plasma, po): 67.1 L
Absorption duration D1, population estimate (%SEE) [2, 3]: 0.971 (14.8%) hr
Apparent Clearance CL/F, population estimate (%SEE) [2, 3]: 9.74 (9.57%) L/hr
AUC24,SS at which CANDLE patients normalized their IFN scores (25-gene IFN score): 1500 to 2000 nM·h
patients who developed BK viremia [4]: 44%
patients with Herpes Zoster [4]: 1 patient
deaths during the program (mean exposure 35.4 months): No deaths
most frequently reported TEAEs (over 54 patient-years): Upper respiratory tract infection
